Experimental data as given in patent publication US7943795B2, “Vitamin D receptor modulators” (Eli Lilly and Company, priority 2004, dated 2011).

What was measured:
[1] = system: KERtr cells (Human skin keratinocyte); assay: Keratinocyte proliferation assay; type: cell-based; conditions: 72 hr, BrdU incorporation, read-out: Keranocyte Proliferation IC50
Description: 6. The keratinocyte proliferation assay is described in the “Assay” section of the Description, infra.
The Keratinocyte Proliferation Assay
This Assay is indicative for the treatment of psoriasis. An acceptable test result is IC50 value of less than or equal to 300 nM. Preferred assay results are IC50 values of less than 100 nM.
KERtr cells (Human skin keratinocyte are transformed with a retrovirus vector, obtained from ATCC, then are plated in 96-well flat-bottomed plates (3000 cells/well) in 100 μl keratinocyte serum free medium supplemented with bovine pituitary extract in the absence of EGF (Life Technologies, Rockville, Md.) and are incubated at 37° C. for two days. The cells are treated with various concentrations of VDR ligands (ten-fold serial dilution from 10,000 nM to 0.1 nM in triplicate), dissolved in 100 μl keratinocyte serum free medium supplemented with bovine pituitary extract in the absence of EGF and are incubated at 37° C. for 72 hr. BrdU (5-bromo-2′-deoxyuridine) incorporation is analyzed as a measure of DNA replication (Cell proliferation ELISA kit, Roche Diagnostics, Indianapolis, Ind.) and absorbance is measured at […]. Potency values (IC50) values were determined as the concentration (nM) of compound that elicited a half-maximal response.

[2] = system: IL-10 production in PBMCs; assay: IL-10 induction assay; type: cell-based; conditions: PBMC; TPA/PHA stimulated human PBMCs, IL-10 in supernatant by immunoassay
Text: 7. The IL-10 induction assay is described in the “Assay” section of the Description, infra.
The IL-10 Induction Assay
This is an in vitro efficacy assay for psoriasis, abscess and adhesion. Psoriasis involves both keratinocytes and immune cells. IL-10 is a unique cytokine because it is anti-inflammatory and immunosuppressive. This assay tells us whether a VDRM is able to function as an agonist in PBMCs (primary blood mononuclear cells) or not. A lower EC50 value is desirable in this assay since a compound with a lower EC50 value will be a better agonist in PBMCs. An acceptable test result is an EC50 value of less than 200 nM. Preferred assay results are EC50 values of less than 100 nM.
Isolation of Peripheral Blood Mononuclear Cells (PBMCs):
Collect 50 ml of human blood and dilute with media, RPMI-1640. Add diluted blood to sterile tubes with ficol. Centrifuge the tubes. Discard the top layer and collect the cells from middle layer. Divide all cells into four tubes and add media. Centrifuge. Aspirate off media and resuspend the cells. Collect all cells. Centrifuge at 1200 rpm for 10 m. Resuspend the cells in RPMI-1640 with 2% FBS and then count cells.
Stimulation of PBMC: Prepare TPA in DMSO. Dissolve PHA in water. Plate TPA/PHA treated PBMCs in well plates. Incubate the cells.
Treatment: Prepare all compound dilutions in plain RPMI-1640 media. Add diluted compound and incubate. Sample Collection and assay: Remove all the cells by centrifugation and assay the supernatant for IL-10 by immunoassay using anti-human IL-10 antibody coated beads, as described by the manufacturer (Linco Research Inc., St. Charles, Mo.).

CCC(CC)(c1ccc(OCC(=O)C(C)(C)C)c(C)c1)c1ccc2cc(C(=O)O)ccc2c1 [Ex. 1, 6-{1-[4-(3,3-dimethyl-2-oxobutoxy)-3-methylphenyl]-1-ethylpropyl}naphthalene-2-carboxylic acid] gave an IC50 [1] of 653 nM and an IC50 [2] of 76 nM.
Work on CCC(CC)(c1ccc(OCC(=O)C(C)(C)C)c(C)c1)c1ccc2cc(C(=O)NCC(=O)O)ccc2c1 [Ex. 3, [(6-{1-[4-(3,3-Dimethyl-2-oxo-butoxy)-3-methylphenyl]-1-ethylpropyl}naphthalene-2-carbonyl)amino]acetic acid] yielded an IC50 [1] of 2 nM.
With CCC(CC)(c1ccc(OCC(=O)C(C)(C)C)c(C)c1)c1ccc2cc(C(=O)N(C)C)ccc2c1 [Ex. 4, 6-{1-[4-(3,3-dimethyl-2-oxobutoxy)-3-methylphenyl]-1-ethylpropyl}naphthalene-2-carboxylic acid dimethylamide] the IC50 [1] was > 1000 nM.
In the case of CCC(CC)(c1ccc(OCC(=O)C(C)(C)C)c(C)c1)c1ccc2cc(C(=O)N(C)CC(=O)O)ccc2c1 [Ex. 5, [(6-{1-[4-(3,3-Dimethyl-2-oxobutoxy)-3-methylphenyl]-1-ethylpropyl}naphthalene-2-carbonyl)methylamino]acetic acid], the IC50 [1] is reported as 24 nM and the IC50 [2] is reported as 5 nM.
